These results are taken from paper PMC10106425 (ACS infectious diseases, 2023).

Experiment [1] concerns human PLK1. The conditions noted are these: read-out: PLK1 IC50, from prior publication or from Selleck Chemicals ref 15, 16; cited from earlier work.
The subject of experiment [2] is HepG2 cells. As to the kind of experiment: Cytotoxicity assay. It is filed as cell-based, human. The conditions noted are these: for EC50: read-out: HepG2 EC50.
Experiment [3] has as its system Plasmodium falciparum strain Dd2. As to the kind of experiment: SYBR Green I proliferation assay, asynchronous blood stage, Dd2. Type of experiment: cell-based. The conditions noted are these: for EC50: read-out: Pf Dd2 EC50.
For experiment [4], the system named is P. falciparum Dd2. As to the kind of experiment: Flow-cytometry rate of killing assay. It is filed as cell-based, Plasmodium falciparum. The conditions noted are these: 10 × EC50.
For experiment [5], the system named is PfARK2. As to the kind of experiment: Radioactive kinase assay. Type of experiment: biochemical, P. falciparum. The conditions noted are these: highest concentration tested 2 μM.
The subject of experiment [6] is Plasmodium falciparum strain 3D7. As to the kind of experiment: SYBR Green I proliferation assay, asynchronous blood stage, 3D7.
The test system of experiment [7] is PfARK2. As to the kind of experiment: ADP-Glo kinase assay. Type of experiment: biochemical, P. falciparum. The conditions noted are these: up to 5 μM. Background: ADP-Glo first removes unused ATP, then detects ADP through luciferase.
The subject of experiment [8] is PK9. As to the kind of experiment: KinaseSeeker split-luciferase competitive binding assay. On the set-up: species or system P. falciparum.
The target in experiment [9] is PKB (Plasmodium falciparum, UniProt Q8I4W3). Described as above. Also on record: species or system P. falciparum. The conditions noted are these: read-out: % activity remaining at 2.5 μM, PKB.
The test system of experiment [10] is PfARK3. Described as above. On the set-up: species or system P. falciparum.
Experiment [11] has as its target PK5 (Plasmodium falciparum, UniProt P61075). Described as above. On the set-up: species or system P. falciparum. The conditions noted are these: read-out: % activity remaining at 2.5 μM, PK5.
Experiment [12] deals with GSK3 (Plasmodium falciparum, UniProt O77344). The description is as above. The conditions noted are these: read-out: % activity remaining at 2.5 μM, GSK3. On the set-up: species or system P. falciparum.
In experiment [13] the target is CDPK5 (Plasmodium falciparum, UniProt A0A5K1K8H0). The experiment is described as above. The conditions noted are these: read-out: % activity remaining at 2.5 μM, CDPK5. Also on record: species or system P. falciparum.
Chain of CDPK5 (A0A5K1K8H0 whole entry): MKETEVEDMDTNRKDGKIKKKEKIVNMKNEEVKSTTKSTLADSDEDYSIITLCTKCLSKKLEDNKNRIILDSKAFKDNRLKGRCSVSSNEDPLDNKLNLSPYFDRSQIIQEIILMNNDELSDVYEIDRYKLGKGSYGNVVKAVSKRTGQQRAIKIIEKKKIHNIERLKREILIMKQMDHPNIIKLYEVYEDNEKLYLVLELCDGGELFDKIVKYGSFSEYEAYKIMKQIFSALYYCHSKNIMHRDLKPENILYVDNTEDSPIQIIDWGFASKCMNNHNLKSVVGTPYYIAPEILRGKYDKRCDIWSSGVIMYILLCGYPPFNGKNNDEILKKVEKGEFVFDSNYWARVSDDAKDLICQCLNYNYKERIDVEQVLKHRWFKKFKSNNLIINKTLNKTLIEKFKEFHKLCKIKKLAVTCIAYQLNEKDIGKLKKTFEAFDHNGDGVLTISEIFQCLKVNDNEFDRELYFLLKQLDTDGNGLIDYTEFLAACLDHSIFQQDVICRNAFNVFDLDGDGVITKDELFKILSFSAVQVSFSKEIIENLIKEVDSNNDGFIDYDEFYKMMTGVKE
Experiment [14] concerns Pf NEK1. The description is as above. Also on record: species or system P. falciparum.
The target of experiment [15] is CDPK2 (Plasmodium falciparum, UniProt Q8ICR0). The experiment is described as above. Also on record: species or system P. falciparum. The conditions noted are these: read-out: % activity remaining at 2.5 μM, CDPK2.
Chain of CDPK2 (Q8ICR0 whole entry): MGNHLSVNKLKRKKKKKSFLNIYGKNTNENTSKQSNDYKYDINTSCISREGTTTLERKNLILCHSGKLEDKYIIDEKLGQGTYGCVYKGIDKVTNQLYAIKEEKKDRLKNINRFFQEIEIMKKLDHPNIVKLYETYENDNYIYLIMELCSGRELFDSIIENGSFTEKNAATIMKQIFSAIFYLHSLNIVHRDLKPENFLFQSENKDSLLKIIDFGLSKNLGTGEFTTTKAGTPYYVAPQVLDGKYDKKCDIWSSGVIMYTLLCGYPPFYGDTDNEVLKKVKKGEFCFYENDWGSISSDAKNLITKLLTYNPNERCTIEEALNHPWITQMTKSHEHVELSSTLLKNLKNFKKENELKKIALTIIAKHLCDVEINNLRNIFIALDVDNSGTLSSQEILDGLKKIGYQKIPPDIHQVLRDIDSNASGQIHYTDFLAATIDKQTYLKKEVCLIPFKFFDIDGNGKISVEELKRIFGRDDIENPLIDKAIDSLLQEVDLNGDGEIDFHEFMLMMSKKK
Experiment [16] concerns PfARK1. Described as above. Also on record: species or system P. falciparum.
The target of experiment [17] is Pf NEK3 (PF3D7_1201600) (Plasmodium falciparum, UniProt Q8I629). As to the kind of experiment: biochemical. Type of experiment: binding. The conditions noted are these: for remaining activity at 2.5 µM: read-out: % activity remaining at 2.5 μM, NEK3.
Experiment [18] deals with PK6 (Plasmodium falciparum, UniProt O77239). As to the kind of experiment: KinaseSeeker split-luciferase competitive binding assay. On the set-up: species or system P. falciparum. The conditions noted are these: read-out: % activity remaining at 2.5 μM, PK6.
Experiment [19] concerns synchronized Dd2 parasites. As to the kind of experiment: Stage-specific assay. The conditions noted are these: 5 × EC50 applied later in the ring stage (18 HPI). It is filed as cell-based, Plasmodium falciparum.
Where [20] appears, read: Plasmodium falciparum, DD2, 72 h.
The mark [21] stands for this setting: 48 h, average ± SEM, at least three biological replicates.
Where [22] appears, read: 72 h, average ± SEM, at least three biological replicates.
[23] abbreviates: 3D7, 72 h, read-out: Pf 3D7 EC50.

Where two headings read alike, the source gives them in different places. Bounds are passed on as bounds.

Chain of PK5 (P61075 whole entry): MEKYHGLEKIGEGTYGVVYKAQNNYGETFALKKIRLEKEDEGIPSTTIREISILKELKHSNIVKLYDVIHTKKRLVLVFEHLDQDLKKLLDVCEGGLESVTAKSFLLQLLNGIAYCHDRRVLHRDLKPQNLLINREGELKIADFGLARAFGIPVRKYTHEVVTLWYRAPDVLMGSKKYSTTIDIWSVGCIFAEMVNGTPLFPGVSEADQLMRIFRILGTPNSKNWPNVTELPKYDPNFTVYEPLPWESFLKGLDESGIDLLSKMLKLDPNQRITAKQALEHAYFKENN

By IC50 is commonly meant the point on the concentration scale where inhibition reaches its midpoint. Usually EC50 stands for the midpoint of the concentration-response curve. For `COc1cc(OC)c(/C=C/S(=O)(=O)Cc2ccc(OC)c(NCC(=O)O)c2)c(OC)c1` [ON-01910 (16), ON-01910], in experiment [1], the IC50 was […]. In experiment [2], the “Selectivity Index (SI) = HepG2 EC50/Dd2 EC50” value (“Selectivity Index” for short) is given as […]. In addition, the EC50 was 11900 nM in [2] (Homo sapiens, HepG2, 48 h) and above 5000 nM in experiment [3] (setting [20]).

As for `Cc1ncc(CCCN(C)C)cc1Nc1ncc2c(n1)-c1ccc(C(F)(F)F)cc1NC(=S)C2` [MLN0905 (13), MLN0905], in experiment [1], the IC50 is 2 nM. Besides, the “Selectivity Index” value in experiment [2] amounted to 2.0. In addition, the figures for the concentration giving a half-maximal response (EC50) in experiment [2] (setting [21]) and in experiment [3] (setting [22]) were 3940 ± 110 nM and 1820 ± 260 nM, respectively.

`CC[C@@H]1C(=O)N(C)c2cnc(Nc3ccc(C(=O)NC4CCN(C)CC4)cc3OC)nc2N1C1CCCC1` [BI-2536 (1), BI-2536]: the “compound incubation required for a full killing effect” value (“compound incubation required” below) in experiment [4] lay in the range of 24 to 48 h. For the same compound, in experiment [5], the “inhibitory effect in PfARK2” value is “neither compound displayed inhibitory effects”. Further, the EC50 in experiment [2] (Homo sapiens, HepG2, 48 h) is 3730 ± 520 nM; in experiment [3] (setting [20]), 178 ± 12 nM; in experiment [6] (setting [23]) it was 135 ± 35 nM; in experiment [6] (3D7, read-out: EC50, 3D7 clone A10) it was 288 nM. Also, in experiment [7], the “activity in PfARK2” value is “lack of activity”.

Regarding `Nc1ccc(-c2ccc3ncc4ccc(=O)n(-c5cccc(C(F)(F)F)c5)c4c3c2)cn1` [torin2], the EC50 in [3] (setting [22]) amounted to 5.3 ± 0.3 nM.

What is called remaining activity is what remains of the control signal, in per cent. For `C[C@@H](Oc1cc(-n2cnc3ccc(CN4CCN(C)CC4)cc32)sc1C(N)=O)c1ccccc1C(F)(F)F` [GSK461364 (12), GSK461364], in experiment [8], the “% activity remaining at 2.5 μM, PK9” value came out at 100.0%. The remaining activity at 2.5 µM came out at 100% in experiment [9]; 100% in experiment [11]; 100% in experiment [12]; 100% in [13]; 100% in experiment [15]; 9.7% in experiment [17]. For the same compound, in experiment [18], the remaining activity at 2.5 µM was 100%. The “% activity remaining at 2.5 μM, ARK3” value in [10] worked out at 96.2%. Also, in experiment [4], the “compound incubation required” value was in the range of 24 to 48 h. Also, in [5], the “inhibitory effect in PfARK2” value was “neither compound displayed inhibitory effects”. For the same compound, the values for the IC50 in experiment [1] and in experiment [17] were 2.2 nM and 19 nM, respectively. Moreover, the EC50 was found to be 1910 ± 210 nM in experiment [2] (Homo sapiens, HepG2, 48 h); 533 ± 78 nM in experiment [3] (setting [20]); 1410 ± 77 nM in experiment [6] (setting [23]). For the same compound, in [14], the “% activity remaining at 2.5 μM, NEK1” value worked out at 100.0%. Moreover, the “% activity remaining at 2.5 μM, ARK1” value in experiment [16] is recorded as 99.5%.

SBE 13 [SBE 13 (14)]: the IC50 in experiment [1] is 0.2 nM. Besides, the “Selectivity Index” value in experiment [2] is listed as above 7.0. Besides, the 50% effective concentration (EC50) in experiment [2] (setting [21]) was above 25000 nM; in experiment [3] (setting [22]), 3570 ± 130 nM.

As to `CC[C@@H]1C(=O)N(C)c2cnc(Nc3ccc(C(=O)N[C@H]4CC[C@H](N5CCN(CC6CC6)CC5)CC4)cc3OC)nc2N1C(C)C` [BI-6727 (11), BI-6727], the “% activity remaining at 2.5 μM, PK9” value in [8] was determined as 100.0%. In addition, the remaining activity at 2.5 µM was determined as 49.3% in [9]; 100% in [11]; 100% in experiment [12]; 100% in experiment [13]; 100% in experiment [15]; 11.1% in [17]. Further, the remaining activity at 2.5 µM in experiment [18] turned out to be 67.3%. For the same compound, the “% activity remaining at 2.5 μM, ARK3” value in experiment [10] is 83.6%. The “compound incubation required” value in experiment [4] is 24 to 48 h. For the same compound, the “DNA replication (YOYO-1 signal)” value in experiment [19] is listed as “delayed increase in the YOYO-1 signal at 54 h”. Moreover, the half-maximal inhibitory concentration (IC50) in [1] was 0.87 nM; in [17], 130 nM. Further, the “Selectivity Index” value in [2] is reported as 8.0. In addition, the EC50 in [2] (Homo sapiens, HepG2, 48 h) turned out to be 1930 ± 460 nM; in experiment [3] (setting [20]), 230 ± 14 nM; in experiment [6] (setting [23]) it was 284 ± 52 nM. For the same compound, the “Resistance Index (RI) = Dd2 EC50/3D7 EC50” value in experiment [3] was found to be 0.81. Besides, in [14], the “% activity remaining at 2.5 μM, NEK1” value amounted to 93.8%. For the same compound, in [16], the “% activity remaining at 2.5 μM, ARK1” value is recorded as 100.0%.

Regarding `COc1cc2ncn(-c3cc(OCc4ccccc4C(F)(F)F)c(C(N)=O)s3)c2cc1OC` [GW843682 (17), GW843682], the IC50 in [1] is 2.2 nM. For the same compound, the EC50 was above 25000 nM in experiment [2] (setting [21]) and above 5000 nM in [3] (setting [22]).

Take `CN1CCN(c2ccc(OC(F)(F)F)c(Nc3ncc4c(n3)-c3c(c(C(N)=O)nn3CCO)CC4)c2)CC1` [NMS-P937 (15), NMS-P937]: the IC50 in [1] is […]. Further, the “Selectivity Index” value in experiment [2] is […]. The EC50 in experiment [2] (setting [21]) is 6010 ± 79 nM; in experiment [3] (setting [22]) it was above 5000 nM.
